Results as given in US6454828B1 (Nulex, Inc., priority 2000, dated 2002).

How the values were obtained:
Pioneer brand 34RO7 corn = assay: Greenhouse evaluation study on use of ZDC as zinc fertilizer on corn; type: in vivo; conditions: for Dry Matter: corn harvested at 5-6 leaf stage, low-Zn Wymore silt loam soil; for Uptake P / Uptake Zn: calculated as dry matter times concentration; for Plant concentration P / Plant concentration Zn: dry plant material, ICP
Description: A greenhouse study was conducted to evaluate ZDC.
The soil source was a surface soil from a severely eroded Wymore silt loam soil (fine, smectitic, mesic Aquertic Argiudolls). Zinc deficiency symptoms on corn had been observed on the site during the 1999 growing season.
The soil was air-dried and sieved through a 1 cm coarse sieve. Five and one-half inch top diameter, plastic-lined pots were used. For each pot, 1600 g of soil was weighed into a plastic bag, and 1 g of monoammonium phosphate (11-52-0) was added to the plastic bags as a nitrogen and phosphorous source to ensure adequate growth. The MPA/soil was thoroughly mixed. About ⅔ of the soil from the thoroughly mixed MAP/soil was added to the plastic-lined pot, with roughly 2 inches of soil remaining to be added to the pot after starter fertilizer application and seed planting. A small furrow was made across the pot and a MAP/zinc starter mix added. An inch of soil was added and 4 seeds of Pioneer brand 34RO7 corn was planted directly over the fertilizer band, and the rest of the soil was added to the pot to cover the seed to one inch deep. Planting was on March 24. The fertilizer rate was calculated as a starter band rate based on the linear feet in an acre planted in 30 inch rows. A 5″ length of row was used in the calculations. […] Six replications were used. Pots were watered from the surface using distilled water. All pots received a blanket application of (NH4)2SO4 at the rate of 50#N/acre at the initial watering and twice more during the duration of the study.
Pots were thinned to three plants per pot approximately 1 week after emergence. Plants were harvested April 28 for dry matter yield by clipping about one-half inch above the soil surface. Samples were oven-dried at 65° C. for 48 hours and weighed.
The dry plant material was ground through a stainless steel small plant grinder to pass a 2 mm sieve. A quarter gram was weighed, wet-ashed with nitric-perchloric acid, and P and Zn concentration determined using an inductive couple plasma (ICP) instrument. Zinc and P uptake were calculated as dry matter times concentration.

[1] = Hydroscopicity check: granulated material stored overnight in the open; type: physicochemical; conditions: for Hydroscopicity of granulated material (in words): material melt-granulated at about 340-360° F.; for % Gain (weight, stored in the open): 24 hrs
Description: A sample of the material granulated in the previous run at about 350° F. was screened, and the material falling into a −8 mesh class was stored overnight in the open to check for hydroscopicity.

[2] = ambient temperatures; cited from earlier work

Hydroscopicity of granulated material (in words) [1] | Hydroscopicity of granulated material (in words) ([1]; listed as Zn(NH3)2Cl2) | % Gain (weight, stored in the open) ([1]; −4+6 mesh granulated material) | Weight gained at 24 hrs. ([1]; −4+6 mesh granulated material, starting Wt. 5.0774) | % Gain (weight, stored in the open) ([1]; −8 mesh granulated material) | Weight gained at 24 hrs. ([1]; −8 mesh granulated material, starting Wt. 5.5600) | SMILES | Plant height, visual (10# Zn vs 1# Zn) (Pioneer brand 34RO7 corn; 10# Zn as ZDC compared with 1# Zn as ZDC, from shortly after emergence throughout the study) | Dry Matter (Pioneer brand 34RO7 corn; Zn rate 1 lb/ac as starter band) | Uptake P (Pioneer brand 34RO7 corn; Zn rate 1 lb/ac) | Uptake Zn (Pioneer brand 34RO7 corn; Zn rate 1 lb/ac) | Plant concentration P (Pioneer brand 34RO7 corn; Zn rate 1 lb/ac) | Plant concentration Zn (Pioneer brand 34RO7 corn; Zn rate 1 lb/ac) | Dry Matter (Pioneer brand 34RO7 corn; Zn rate 10 lb/ac as starter band) | Uptake P (Pioneer brand 34RO7 corn; Zn rate 10 lb/ac) | Uptake Zn (Pioneer brand 34RO7 corn; Zn rate 10 lb/ac) | Plant concentration P (Pioneer brand 34RO7 corn; Zn rate 10 lb/ac) | Plant concentration Zn (Pioneer brand 34RO7 corn; Zn rate 10 lb/ac) | Zinc content of solution (solubility) [2]
very low hydroscopicity | did not appear to be hydroscopic | 0.18% | 0.0091 | 0.37% | 0.0206 | N.N.[Cl][Zn][Cl] [ZDC, Zinc diammine chloride] | slightly shorter | 7.88 g/pot | 28.4 mg/pot | .21 μg/pot | .36% | 27 ppm | 7.44 g/pot | 24.6 mg/pot | .35 μg/pot | .33% | 47 ppm | 
 |  |  |  |  |  | [Cl-].[Cl-].[Zn+2] [zinc chloride] |  |  |  |  |  |  |  |  |  |  |  | 30 % zinc
